The target in test [1] is T1, Tyrosine-protein kinase Fyn (Homo sapiens, UniProt P06241). Description: Inhibition of human Fyn expressed in Sf9 cells after 20 mins by ELISA in presence of 1 umol/L ATP. A general note: An ELISA detects its analyte on a solid surface through an enzyme-linked reagent.
In test [2] the target is T1, Tyrosine-protein kinase Fyn. Description: Inhibition of human Fyn expressed in Sf9 cells at 30 umol/L by ELISA.
Test [3] shares this target. Description: Inhibition of human Fyn expressed in Sf9 cells at 10 umol/L by ELISA.
For test [4] the target is unchanged. Description: Inhibition of human Fyn expressed in Sf9 cells after 1 min by ELISA in presence of 10 umol/L ATP.
Test [5] shares this target. Description: Inhibition of human Fyn expressed in Sf9 cells after 20 mins by ELISA in presence of 10 umol/L ATP.
The target is the same in test [6]. Description: Inhibition of human Fyn expressed in Sf9 cells after 1 min by ELISA in presence of 100 umol/L ATP.
Test [7] has the same target. Description: Inhibition of human Fyn expressed in Sf9 cells after 20 mins by ELISA in presence of 100 umol/L ATP.
Test [8] shares this target. Description: Inhibition of human Fyn expressed in Sf9 cells after 1 min by ELISA in presence of 1 umol/L ATP.

Experimental findings from ChEMBL document CHEMBL1142943, “Homology modeling of human Fyn kinase structure: discovery of rosmarinic acid as a new Fyn kinase inhibitor and in silico study of its possible binding modes” (J Med Chem, 2007) are described below.

T1 sequence (P06241 whole entry): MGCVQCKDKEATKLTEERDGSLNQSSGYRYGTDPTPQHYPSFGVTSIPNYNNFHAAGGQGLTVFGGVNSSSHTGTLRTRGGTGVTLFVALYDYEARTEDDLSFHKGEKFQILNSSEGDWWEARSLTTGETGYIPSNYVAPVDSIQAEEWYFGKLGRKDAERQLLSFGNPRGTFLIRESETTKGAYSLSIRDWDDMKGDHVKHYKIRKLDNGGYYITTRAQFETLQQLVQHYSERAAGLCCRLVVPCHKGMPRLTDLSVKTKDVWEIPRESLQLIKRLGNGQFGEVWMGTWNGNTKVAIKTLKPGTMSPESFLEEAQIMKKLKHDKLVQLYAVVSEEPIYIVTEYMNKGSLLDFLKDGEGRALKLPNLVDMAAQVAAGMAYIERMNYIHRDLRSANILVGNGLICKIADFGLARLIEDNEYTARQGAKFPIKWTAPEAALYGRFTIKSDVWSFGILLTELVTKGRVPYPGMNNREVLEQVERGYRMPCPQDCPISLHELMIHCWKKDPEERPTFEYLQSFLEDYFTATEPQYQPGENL

`O=C(/C=C/c1ccc(O)c(O)c1)O[C@H](Cc1ccc(O)c(O)c1)C(=O)O` [ROSMARINIC ACID]: the IC50 stood at 1.3 µM in test [1]; 74 µM in test [4]; 3.6 µM in test [5]; 63 µM in test [6]; 17 µM in test [7]; 36 µM in test [8]. Also, the inhibition constant (Ki) in test [2] amounted to 10.2 µM; in test [3], 7.5 µM.

Usually IC50 stands for the concentration at which inhibition is half-maximal. As a reminder, the Ki is the dissociation constant of the complex between target and ligand, obtained from inhibition or displacement.
